Test results: patent US20250161476A1 (REGENERON PHARMACEUTICALS, INC., priority 2020, published 2025)

Assays:
[1] = human, 4 h, 2 µM
Protocol: An assay was performed to determine the plasma protein binding of compounds of the disclosure. For the assay, on the day of experiment, the plasma was thawed in cold water and centrifuged at 3220 rpm for 5 minutes to remove any clots. The pH value of the resulting plasma was checked
For the dialysis, the test compound and control compound were dissolved in DMSO to achieve 10 mM stock solutions. DMSO working solutions were prepared at 400 μM. To prepare the loading matrix, compound working solutions (5 μL) were added in a 1:200 ratio to blank matrix (995 μL) and mixed thoroughly. To prepare the time zero (TO) samples to be used for recovery determination, 50 μL aliquots of loading matrix were transferred in triplicate to the sample collection plate. The samples were immediately matched with opposite blank buffer to obtain a final volume of 100 μL of 1:1 matrix/dialysis buffer (v/v) in each well. 500 μL of stop solution were added to these TO samples. This was then stored at 2-8° C. pending further processes along with other post-dialysis samples. To load the dialysis device, an aliquot of 150 μL of the loading matrix was transferred to the donor side of each dialysis well in triplicate, and 150 μL of the dialysis buffer was loaded to the receiver side of the well. […]
The percent unbound, percent bound, and percent recovery values were calculated using the following equations: […]

human GLP1R = human GLP1R (Homo sapiens (Human), UniProt P43220); test: cAMP responsive luciferase reporter assay, HEK293/CRE-Luc/hGLP1R cells; assay type: cell-based
[2] = target: human glucagon receptor (GCGR) (Homo sapiens (Human), UniProt P47871); test: CRE-luciferase reporter bioassay, HEK293/Myc-hGCGR/Cre-Luc cell line; assay type: cell-based
Protocol: (§2) Cells were incubated overnight at 37° C. in 5% CO2. […] Plates were incubated for 5.5 h at 37° C. in 5% CO2. For end-point measurement, 100 μL/well of One-Glo reagent (Promega, #E6051) was added and plates were kept at room temperature for 5-10 minutes. Luciferase activity was measured on Envision Multilabel Plate Reader (Perkin Elmer) in Luminescent mode. The relative light units (RLU) values were obtained and the results were analyzed using nonlinear regression with GraphPad Prism software (GraphPad).

[3] = Liver microsome stability (intrinsic clearance); assay type: in vitro ADME; details: microsomes
Protocol: To assess the in vitro ADME properties of the LP, microsomal stability assay was performed to determine intrinsic clearance, and plasma protein binding assay was performed to understand the distribution potential.

[4] = Plasma stability of payloads and linker-payloads, monkey plasma; assay type: in vitro ADME; details: assay time 3 days
Protocol: (§1) The plasma stability of payloads and linker payloads of the disclosure were measured. For the assay, pooled frozen plasma (human, mouse or monkey) was thawed in cold water or a 37° C. water bath prior to experiment. Plasma was centrifuged at 4000 rpm for 5 min if any clots were observed, they were subsequently removed. If required, the pH was adjusted to 7.4±0.1. For the preparation of compounds and positive controls, a 1 mM intermediate solution was prepared by diluting 10 μL of their stock solution with 90 μL DMSO; a 1 mM intermediate solution of the positive control (Propantheline) was prepared by diluting 10 μL of its stock solution with 90 μL ultrapure water. Subsequently, 100 μM dosing solution for each compound was prepared by diluting 20 μL of the intermediate solution (1 mM) with 180 μL 45% MeOH/H2O. 98 μL of plasma was spiked with 2 μL of dosing solution (100 μM) to achieve the final concentration of 2 μM in duplicate. Samples were then incubated at 37° C. in a water bath. […] At each time point, 400 μL of stop solution (200 ng/mL tolbutamide plus 200 ng/mL labetalol in 50% ACN/MeOH) was added to precipitate protein and mixed thoroughly. Sample plates were then centrifuged at 4,000 rpm for 10 min. An aliquot of supernatant (50 μL) was transferred from each well and mixed with 100 μL ultra-pure water. […]

HEK293/CRE-Luc cells = test: cAMP responsive luciferase reporter assay, HEK293/CRE-Luc cells (no hGLP1R expression); assay type: cell-based, human
In short: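 Counter-screen in HEK293 cells carrying CRE-driven firefly luciferase without hGLP1R; 3-fold serial dilutions of payloads or linker-payloads at 0.2% final DMSO, 4–6 h.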

[5] = target: human glucagon-like peptide 2 receptor (GLP2R) (Homo sapiens (Human), UniProt O95838); test: CRE-luciferase reporter bioassay, HEK293/Myc-hGLP2R/Cre-Luc cell line; assay type: cell-based; details: GLP2R
Protocol: as §2

[6] = target: human gastric inhibitory polypeptide receptor (GIPR) (Homo sapiens (Human), UniProt P48546); test: CRE-luciferase reporter bioassay, HEK293/Myc-hGIPR/Cre-Luc cell line; assay type: cell-based
Protocol: as §2

[7] = tested on: Salmonella typhimurium TA98 and TA100; test: Mini-Ames reverse mutation assay with and without S9 mix; assay type: cell-based
Protocol: The objective of this Mini-Ames study was to evaluate the test article LP11, for its ability to induce reverse mutations in the genome of strains of Salmonella typhimurium TA98 and TA100 in the presence and absence of metabolic activation (S9 mixture).
The Mini-Ames assay was conducted for the test article in the presence and absence of the S9 mixture, concurrently with the negative/solvent control (DMSO) using six wells and positive controls (2 μg/well TA98 alone, 0.2 μg/well TA100 alone or 0.4 μg/well TA98+TA100 in the presence of S9) using three wells. The tested dose levels for the test article, in the presence and absence of S9 mix, were 1000, 400, 160, 64, 25, 10, 4, and 1.5 μg per well, with each dose tested in triplicate. The study was conducted using fresh cultures of the bacterial strains and fresh test article formulations.

[8] = Plasma stability of payloads and linker-payloads, mouse plasma; assay type: in vitro ADME; details: assay time 3 days
Protocol: as §1

[9] = relative to P8 of the same experiment

Sequence of human GLP1R (P43220 24-463): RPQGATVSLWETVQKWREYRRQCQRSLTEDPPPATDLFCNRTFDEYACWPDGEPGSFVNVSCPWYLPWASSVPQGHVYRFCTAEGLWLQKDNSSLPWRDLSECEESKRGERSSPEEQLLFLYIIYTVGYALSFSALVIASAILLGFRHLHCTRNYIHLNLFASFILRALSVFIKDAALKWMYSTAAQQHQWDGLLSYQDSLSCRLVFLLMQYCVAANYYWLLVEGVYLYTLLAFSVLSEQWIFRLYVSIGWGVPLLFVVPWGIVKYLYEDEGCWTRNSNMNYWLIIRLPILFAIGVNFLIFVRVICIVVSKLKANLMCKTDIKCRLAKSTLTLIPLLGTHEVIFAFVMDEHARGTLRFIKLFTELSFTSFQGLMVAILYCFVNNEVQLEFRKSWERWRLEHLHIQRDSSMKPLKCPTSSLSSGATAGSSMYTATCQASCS
Sequence of human glucagon-like peptide 2 receptor (GLP2R) (O95838 whole entry): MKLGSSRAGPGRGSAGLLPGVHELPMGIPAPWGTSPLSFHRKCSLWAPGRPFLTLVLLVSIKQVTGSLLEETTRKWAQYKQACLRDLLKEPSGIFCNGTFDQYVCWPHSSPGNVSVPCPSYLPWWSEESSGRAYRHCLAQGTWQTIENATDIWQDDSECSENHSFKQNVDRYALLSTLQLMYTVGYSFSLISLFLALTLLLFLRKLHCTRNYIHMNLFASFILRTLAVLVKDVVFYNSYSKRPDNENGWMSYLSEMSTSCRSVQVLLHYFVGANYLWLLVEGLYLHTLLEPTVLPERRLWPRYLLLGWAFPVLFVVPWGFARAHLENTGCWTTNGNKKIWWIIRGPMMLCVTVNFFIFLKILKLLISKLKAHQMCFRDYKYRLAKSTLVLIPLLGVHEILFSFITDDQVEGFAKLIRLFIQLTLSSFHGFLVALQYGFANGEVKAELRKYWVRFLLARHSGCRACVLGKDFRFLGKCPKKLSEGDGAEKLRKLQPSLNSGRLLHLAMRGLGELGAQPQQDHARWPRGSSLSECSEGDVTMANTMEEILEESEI
Sequence of human gastric inhibitory polypeptide receptor (GIPR) (P48546 22-466): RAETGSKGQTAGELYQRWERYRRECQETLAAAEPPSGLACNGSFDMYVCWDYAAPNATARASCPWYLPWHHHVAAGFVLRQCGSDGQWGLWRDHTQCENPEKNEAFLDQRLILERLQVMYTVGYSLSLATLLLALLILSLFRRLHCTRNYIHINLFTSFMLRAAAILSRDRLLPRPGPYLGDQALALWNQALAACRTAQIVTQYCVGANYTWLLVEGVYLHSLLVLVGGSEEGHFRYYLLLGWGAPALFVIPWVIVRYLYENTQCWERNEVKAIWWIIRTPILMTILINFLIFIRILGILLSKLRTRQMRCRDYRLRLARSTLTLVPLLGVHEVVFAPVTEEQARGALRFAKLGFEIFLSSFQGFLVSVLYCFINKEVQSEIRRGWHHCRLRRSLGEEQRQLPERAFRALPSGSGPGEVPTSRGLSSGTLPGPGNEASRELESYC
Sequence of human glucagon receptor (GCGR) (P47871 26-477): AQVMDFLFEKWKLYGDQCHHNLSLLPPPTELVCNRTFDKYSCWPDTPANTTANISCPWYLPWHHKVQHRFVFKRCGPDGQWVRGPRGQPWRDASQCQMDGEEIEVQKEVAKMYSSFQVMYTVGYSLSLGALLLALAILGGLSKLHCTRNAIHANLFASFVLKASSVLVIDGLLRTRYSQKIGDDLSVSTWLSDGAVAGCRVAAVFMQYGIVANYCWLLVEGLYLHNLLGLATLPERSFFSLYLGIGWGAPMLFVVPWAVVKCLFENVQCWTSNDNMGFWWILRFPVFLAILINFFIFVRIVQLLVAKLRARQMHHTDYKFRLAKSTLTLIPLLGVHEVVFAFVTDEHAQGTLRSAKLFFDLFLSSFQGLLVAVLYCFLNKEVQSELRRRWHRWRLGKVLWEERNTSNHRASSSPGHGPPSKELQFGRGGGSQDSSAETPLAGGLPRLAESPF

CCc1cc(OCCCCn2cc(COCCOCCOCCOCCOCCOCCOCCOCCN)nn2)ccc1-c1ccc(C[C@H](NC(=O)[C@H](CC(=O)O)NC(=O)[C@H](CO)NC(=O)[C@@H](NC(=O)C(C)(Cc2ccccc2F)NC(=O)[C@@H](NC(=O)CNC(=O)[C@H](Cc2nn[nH]n2)NC(=O)C(C)(C)C(=O)NCCc2cnc[nH]2)[C@@H](C)O)[C@@H](C)O)C(=O)N[C@@H](CCCc2cc(C)cc(C)c2)C(N)=O)cc1 (some centres unmarked) [LP11, NH2-PEG8-triazole-P8]
% Recovery [1]: 89.2%
HEK293/CRE-LUC/hGLP1R S/N (human GLP1R; highest RLU / RLU of untreated wells): 74.5
HEK293/CRE-LUC/hGLP1R Relative Potency (% P8 EC50) (human GLP1R; [9]): 33.1%
HEK293/CRE-LUC/hGLP1R Relative Signal:Noise (% P8) (human GLP1R; [9]): 113.3%
GLP2R, GIPR, or GCGR EC50 [2]: Completely inactive
CLint(liver) [3]: <8.6 mL/min/kg
T1/2 [3]: >2.42 h
plasma stability T½ [4]: >49.4 h
EC50 (HEK293/CRE-Luc cells): > 0.2 µM
HEK293/CRE-LUC S/N (HEK293/CRE-Luc cells): 1.3
GLP2R, GIPR, or GCGR EC50 [5]: Completely inactive
GLP2R, GIPR, or GCGR EC50 [6]: Completely inactive
cytotoxicity in tester strains ([7]; 1.5-1000 μg per well, with or without S9 mix): no obvious cytotoxicity
mutagenicity ([7]; Mini-Ames conclusion): negative for mutagenicity
Ames (TA98 and TA100) in the presence and absence of S9 ([7]; TA98 and TA100, with and without S9): Negative for
increase in the mean number of revertant colonies relative to negative/solvent control ([7]; TA98 or TA100, any dose level, presence or absence of S9 mix): ≤ 2.0 fold
plasma stability T½ [8]: >140 h
